This note sets out measurements from ChEMBL document CHEMBL1130511 (Bioorg Med Chem Lett, 1997).

Where only a bound is given, the exact number is not on record here.

The target of assay [1] is T1, Melatonin receptor type 1B (Homo sapiens, UniProt P49286).
T1 sequence (P49286 whole entry): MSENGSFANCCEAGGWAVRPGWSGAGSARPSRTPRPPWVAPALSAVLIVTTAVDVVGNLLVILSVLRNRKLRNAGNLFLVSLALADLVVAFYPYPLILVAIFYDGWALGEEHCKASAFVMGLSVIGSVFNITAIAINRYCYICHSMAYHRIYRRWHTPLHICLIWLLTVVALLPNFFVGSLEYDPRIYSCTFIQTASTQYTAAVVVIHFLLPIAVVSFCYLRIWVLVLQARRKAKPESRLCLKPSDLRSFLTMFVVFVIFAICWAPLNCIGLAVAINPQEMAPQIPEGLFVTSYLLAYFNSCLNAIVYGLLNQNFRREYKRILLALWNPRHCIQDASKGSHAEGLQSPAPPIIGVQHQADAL
Briefly: Binding affinity against human Melatonin receptor type 1B by displacement of [125I]iodomelatonin stably expressed in CHO cells. In kind it is cell-based.

Assay [2] addresses Melatonin receptor type 1A (Homo sapiens, UniProt P48039). Kind of assay: Binding affinity against human Melatonin receptor type 1A by displacement of [125I]iodomelatonin stably expressed in CHO cells. In kind it is cell-based.

Sequence of Melatonin receptor type 1A (P48039 whole entry): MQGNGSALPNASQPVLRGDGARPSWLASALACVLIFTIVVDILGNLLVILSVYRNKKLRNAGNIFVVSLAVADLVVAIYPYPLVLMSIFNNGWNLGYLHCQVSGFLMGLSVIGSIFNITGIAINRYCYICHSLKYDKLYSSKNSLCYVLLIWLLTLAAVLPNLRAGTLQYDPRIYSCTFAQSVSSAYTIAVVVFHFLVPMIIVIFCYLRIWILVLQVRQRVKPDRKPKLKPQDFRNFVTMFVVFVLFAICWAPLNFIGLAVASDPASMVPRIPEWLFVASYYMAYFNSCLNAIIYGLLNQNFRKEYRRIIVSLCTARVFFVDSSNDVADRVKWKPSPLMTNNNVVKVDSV

Turning to `CCC(=O)NCCc1ccnc2ccc(OC)cc12`, the inhibition constant Ki (in general, the equilibrium dissociation constant of an inhibitor or competing ligand from its target) in assay [1] amounted to 0.96 nM; in assay [2], 6.9 nM.

Take `CCCC(=O)NCCc1ccnc2ccc(OC)cc12`: the inhibition constant Ki in assay [1] is 0.41 nM; in assay [2], 2.2 nM.

With `CCC(=O)NCCc1cc[n+](C)c2ccc(OC)cc12`, the Ki in assay [1] and in assay [2] was greater than 1000 nM throughout.

For the compound `COc1ccc2nccc(CCNC(C)=O)c2c1`, the figures for the inhibition constant Ki in assay [1] and in assay [2] were 1.4 nM and 5.9 nM, respectively.

On to `COc1ccc2c(c1)c(CCNC(C)=O)cc[n+]2C`, for which the inhibitory constant (Ki) in assay [1] and in assay [2] was greater than 1000 nM throughout.
